Like-named read-outs stand apart in the source and are kept apart here. Each block holds one compound with its values, some of them ahead of it.
What was measured:
[1] = target: T1, c-Met kinase domain recombinant protein (Homo sapiens, UniProt P08581); experiment: biochemical; details: read-out: Inhibition rate at 10 μM (%)
T1 construct: 50 μL diluted solution of c-Met kinase domain recombinant protein in reaction buffer was added to initiate the reaction
Description: (§1) Enzymatic reaction substrate Poly(Glu,Tyr)4:1 was diluted to 20 μg/mL in potassium ion free PBS (10 mM sodium phosphate buffer, 150 mM NaCl, pH7.2-7.4), microplate was coated with this solution at 125 μL per well, and reacted at 37° C. for 12-16 hours. Liquid in wells was discarded. Plate washing: the plate was washed 3 times for 5 minutes each with 200 μL per well of T-PBS (potassium ion free PBS containing 0.1% Tween-20).
Into each well was added 49 μL diluted ATP solution in reaction buffer (50 mM HEPES pH 7.4, 50 mM MgCl2, 0.5 mM MnCl2, 0.2 mM Na3VO4, 1 mM DTT), and 1 μL per well of compound to be tested was added, then 50 μL diluted solution of c-Met kinase domain recombinant protein in reaction buffer was added to initiate the reaction, each test was setup with two wells of ATP free control. Reaction was performed in a 37° C. shaker (100 rpm) for 1 hour. Liquid in the wells was discarded, and the plate was washed three times with T-PBS.
Antibody PY99 was added at 100 μL per well (the antibody was 1:500 diluted in T-PBS containing 5 mg/mL BSA), incubated in a 37° C. shaker for 0.5 hour. Liquid in the wells was discarded, and the plate was washed three times with T-PBS.
Goat anti mouse secondary antibody labeled with horseradish peroxidase was added at 100 μL per well (the antibody was 1:2000 diluted in T-PBS containing 5 mg/mL BSA), incubated in a 37° C. shaker for 0.5 hour. Liquid in the wells was discarded, and the plate was washed three times with T-PBS.
Reaction was terminated by adding 50 μL per well of 2M H2SO4, the plate was read at 490 nm using a VERSAmax microplate reader with tunable wavelength.
(§2) Inhibition rate of the sample was calculated using the following equation: […]

[2] = target: T1, c-Met kinase domain recombinant protein; experiment: biochemical; details: for inhibition at 10 µM: read-out: Average inhibition rate at 10 μM (%); for inhibition at 1 µM: read-out: Average inhibition rate at 1 μM (%); for inhibition at 0.1 µM: read-out: Average inhibition rate at 0.1 μM (%)
Description: as §1, with “discarded, then” for “discarded. Plate washing:”, “(PBS” for “(potassium ion free PBS”
Into each well was added 50 μL diluted ATP solution in reaction buffer (50 mM HEPES pH 7.4, 50 mM MgCl2, 0.5 mM MnCl2, 0.2 mM Na3VO4, 1 mM DTT), the final concentration was 5 μM. Test compound was diluted in DMSO to proper concentration, added at 1 μL per well or corresponding level of DMSO (negative control wells), then 49 μL diluted solution of c-Met kinase domain recombinant protein in reaction buffer was added to initiate the reaction, each test was setup with two wells of ATP free control. Reaction was performed in a 37° C. shaker (100 rpm) for 1 hour. The plate was washed three times with T-PBS. Primary antibody PY99 diluted solution was added at 100 μL per well, incubated in a 37° C. shaker for 0.5 hour.
The plate was washed three times with T-PBS. Goat anti mouse secondary antibody labeled with horseradish peroxidase was added at 100 μL per well, incubated in a 37° C. shaker for 0.5 hour. The plate was washed three times with T-PBS. […] Reaction was terminated by adding 50 μL per well of 2M H2SO4, the plate was read at 490 nm using a SPECTRA MAX 190 microplate reader with tunable wavelength.
as §2
IC50 was calculated by fitting the data for a four parameter fit using inhibition curve.

T1 sequence (P08581 1078-1345 limits assumed): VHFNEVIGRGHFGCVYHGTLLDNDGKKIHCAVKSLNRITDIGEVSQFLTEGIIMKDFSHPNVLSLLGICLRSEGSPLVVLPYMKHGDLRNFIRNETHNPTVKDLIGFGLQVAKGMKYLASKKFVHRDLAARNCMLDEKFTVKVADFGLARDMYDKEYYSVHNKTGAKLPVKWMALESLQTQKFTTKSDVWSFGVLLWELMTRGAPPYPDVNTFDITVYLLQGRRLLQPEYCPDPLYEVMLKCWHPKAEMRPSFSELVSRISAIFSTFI

Structure (SMILES): Cn1cc(-c2cnc3[nH]nc(S(=O)(=O)c4ccccc4[N+](=O)[O-])c3c2)cn1 [Compound 2, 3-(2-nitrobenzenesulfonyl)-5-[(1-methyl)-4-pyrazolyl]-1-H-pyrazolo[3,4-b]pyridine]
inhibition at 10 µM [1]: 92.8% | inhibition at 1 µM [2]: 7% | inhibition at 10 µM [2]: 92.8%

Structure (SMILES): O=S(=O)(c1c[nH]c2ncc(-c3cccc(Cl)c3)cc12)n1ncc2cccnc21 [Example 109, 1-[(3-chlorophenyl)-1-H-pyrrolo[2,3-b]pyridine-3-sulfonyl]-1-H-pyrazolo[3,4-b]pyridine]
inhibition at 1 µM [2]: 40%

Structure (SMILES): O=S(=O)(c1c[nH]c2ncc(-c3ccc(N4CCOCC4)cc3)cc12)n1ncc2cccnc21 [Example 110, 1-[(4-morpholinylphenyl)-1-H-pyrrolo[2,3-b]pyridine-3-sulfonyl]-1-H-pyrazolo[3,4-b]pyridine]
inhibition at 1 µM [2]: 13.5%

Structure (SMILES): Nc1ccc2ncc(S(=O)(=O)n3ncc4ncc(-c5cc(Cl)cc(Cl)c5)cc43)n2c1 [Example 114, 1-[(6-amino-imidazo[1,2-a]pyridine)-3-sulfonyl]-6-(3,5-dichlorophenyl)-1-H-pyrazolo[4,3-b]pyridine]
inhibition at 1 µM [2]: 30.4%

Structure (SMILES): O=[N+]([O-])c1ccc2ncc(S(=O)(=O)n3ncc4ncc(-c5ccc(C(F)(F)F)cc5)cc43)n2c1 [Example 115, 1-[(6-nitro-imidazo[1,2-a]pyridine)-3-sulfonyl]-6-(4-trifluoromethylphenyl)-1-H-pyrazolo[4,3-b]pyridine]
inhibition at 0.1 µM [2]: 46.6% | inhibition at 1 µM [2]: 95.7%

Structure (SMILES): O=[N+]([O-])c1ccc2ncc(S(=O)(=O)n3ncc4ncc(-c5cc(F)c(F)c(F)c5)cc43)n2c1 [Example 116, 1-[(6-nitro-imidazo[1,2-a]pyridine)-3-sulfonyl]-6-(3,4,5-trifluorophenyl)-1-H-pyrazolo[4,3-b]pyridine]
IC50 [2]: 3.6 ± 0.6 nM | inhibition at 0.1 µM [2]: 70.8% | inhibition at 1 µM [2]: 84.6%

Structure (SMILES): Nc1ccc2ncc(S(=O)(=O)n3ncc4ncc(-c5ccc(F)cc5)cc43)n2c1 [Example 118, 1-[(6-amino-imidazo[1,2-a]pyridine)-3-sulfonyl]-6-(4-fluorophenyl)-1-H-pyrazolo[4,3-b]pyridine]
inhibition at 0.1 µM [2]: 62.7% | inhibition at 1 µM [2]: 75.5%

Structure (SMILES): CCCCNc1ccc2ncc(S(=O)(=O)n3ncc4ncc(-c5cnn(C)c5)cc43)n2c1 [Example 119, 1-[(6-n-butylamino-imidazo[1,2-a]pyridine)-3-sulfonyl]-6-[(1-methyl)-4-pyrazolyl]-1-H-pyrazolo[4,3-b]pyridine]
inhibition at 1 µM [2]: 26.4%

Structure (SMILES): COc1ccc2ncc(S(=O)(=O)n3ncc4ncc(-c5cncc6ccccc56)cc43)n2c1 [Example 122, 1-[(6-methoxy-imidazo[1,2-a]pyridine)-3-sulfonyl]-6-(4-isoquinolinyl)-1-H-pyrazolo[4,3-b]pyridine]
IC50 [2]: 190 ± 32.7 nM | inhibition at 0.1 µM [2]: 72.9% | inhibition at 1 µM [2]: 100%

Structure (SMILES): COc1ccc2cc(-c3cnc4cnn(S(=O)(=O)c5cnc6ccc(OC)cn56)c4c3)ccc2c1 [Example 123, 1-[(6-methoxy-imidazo[1,2-a]pyridine)-3-sulfonyl]-6-(6-methoxy-2-naphthyl)-1-H-pyrazolo[4,3-b]pyridine]
IC50 [2]: 51.5 ± 6 nM | inhibition at 0.1 µM [2]: 87% | inhibition at 1 µM [2]: 99.3%

Structure (SMILES): COc1ccc2ncc(S(=O)(=O)n3ncc4ncc(-c5cccc(C(F)(F)F)c5)cc43)n2c1 [Example 125, 1-[(6-methoxy-imidazo[1,2-a]pyridine)-3-sulfonyl]-6-(3-trifluoromethylphenyl)-1-H-pyrazolo[4,3-b]pyridine]
IC50 [2]: 55.2 ± 5.6 nM | inhibition at 0.1 µM [2]: 84.5% | inhibition at 1 µM [2]: 99.3%

Structure (SMILES): CCOC(=O)c1cnc2cnn(S(=O)(=O)c3cnc4ccc(Br)cn34)c2c1 [Example 130, 1-[(6-bromo-imidazo[1,2-a]pyridine)-3-sulfonyl]-6-ethoxycarbonyl-1-H-pyrazolo[4,3-b]pyridine]
inhibition at 0.1 µM [2]: 16.1% | inhibition at 1 µM [2]: 90.8%

Structure (SMILES): O=C(Nc1cnc2cnn(S(=O)(=O)c3cnc4ccc(Br)cn34)c2c1)c1ccccc1 [Example 131, 1-[(6-bromo-imidazo[1,2-a]pyridine)-3-sulfonyl]-6-benzamido-1-H-pyrazolo[4,3-b]pyridine]
inhibition at 0.1 µM [2]: 75.1% | inhibition at 1 µM [2]: 83.6%

Structure (SMILES): COc1cccc(C(=O)Nc2cnc3cnn(S(=O)(=O)c4cnc5ccc(OC)cn45)c3c2)c1 [Example 134, 1-[(6-methoxy-imidazo[1,2-a]pyridine)-3-sulfonyl]-6-(3-methoxybenzamido)-1-H-pyrazolo[4,3-b]pyridine]
inhibition at 0.1 µM [2]: 66.8% | inhibition at 1 µM [2]: 56.9%

Now from value to compound:

inhibition at 10 µM [1]: 88.1% | inhibition at 10 µM [2]: 88.1%
Structure (SMILES): Cn1cc(-c2cnc3ccn(S(=O)(=O)c4ccccc4[N+](=O)[O-])c3c2)cn1 [Compound 1, 1-(2-nitrobenzenesulfonyl)-6-[(1-methyl)-4-pyrazolyl]-1-H-pyrrolo[3,2-b]pyridine]

inhibition at 10 µM [1]: 84.6% | inhibition at 10 µM [2]: 84.6%
Structure (SMILES): Cn1cc(-c2cnc3cnn(S(=O)(=O)c4ccccc4[N+](=O)[O-])c3c2)cn1 [Compound 3, 1-(2-nitrobenzenesulfonyl)-6-[(1-methyl)-4-pyrazolyl]-1-H-pyrazolo[4,3-b]pyridine]

inhibition at 10 µM [1]: 44.1% | inhibition at 10 µM [2]: 44.1%
Structure (SMILES): Cn1cc(-c2cnc3cnn(S(=O)(=O)c4ccccc4)c3c2)cn1 [Compound 4, 1-benzenesulfonyl-6-[(1-methyl)-4-pyrazolyl]-1-H-pyrazolo[4,3-b]pyridine]

inhibition at 10 µM [1]: 57.5% | inhibition at 0.1 µM [2]: 2.1% | inhibition at 1 µM [2]: 33.8% | inhibition at 10 µM [2]: 57.5%
Structure (SMILES): Cn1cc(-c2cnc3cnn(S(=O)(=O)c4cccc(F)c4)c3c2)cn1 [Compound 5, 1-(3-fluorobenzenesulfonyl)-6-[(1-methyl)-4-pyrazolyl]-1-H-pyrazolo[4,3-b]pyridine]

inhibition at 10 µM [1]: 34.4% | inhibition at 10 µM [2]: 34.4%
Structure (SMILES): Cn1cc(-c2cnc3cnn(S(=O)(=O)c4ccccc4F)c3c2)cn1 [Compound 6, 1-(2-fluorobenzenesulfonyl)-6-[(1-methyl)-4-pyrazolyl]-1-H-pyrazolo[4,3-b]pyridine]

inhibition at 0.1 µM [2]: 28.6% | inhibition at 1 µM [2]: 63.3%
Structure (SMILES): Cn1cc(-c2cnc3cnn(S(=O)(=O)c4cccc5ccccc45)c3c2)cn1 [Example 111, 1-(naphthalene-1-sulfonyl)-6-[(1-methyl)-4-pyrazolyl]-1-H-pyrazolo[4,3-b]pyridine]

inhibition at 1 µM [2]: 48.8%
Structure (SMILES): Cn1cc(-c2cnc3cnn(S(=O)(=O)c4ccc5ccccc5c4)c3c2)cn1 [Example 112, 1-(naphthalene-2-sulfonyl)-6-[(1-methyl)-4-pyrazolyl]-1-H-pyrazolo[4,3-b]pyridine]

inhibition at 1 µM [2]: 15.8%
Structure (SMILES): Nc1ccc2ncc(S(=O)(=O)n3ncc4ncc(-c5ccccc5)cc43)n2c1 [Example 117, 1-[(6-amino-imidazo[1,2-a]pyridine)-3-sulfonyl]-6-phenyl-1-H-pyrazolo[4,3-b]pyridine]

inhibition at 1 µM [2]: 28.7%
Structure (SMILES): CC(=O)Nc1ccc2ncc(S(=O)(=O)n3ncc4ncc(-c5cnn(C)c5)cc43)n2c1 [Example 120, 1-[(6-acetylamino-imidazo[1,2-a]pyridine)-3-sulfonyl]-6-[(1-methyl)-4-pyrazolyl]-1-H-pyrazolo[4,3-b]pyridine]

IC50 [2]: 30 ± 3.3 nM | inhibition at 0.1 µM [2]: 93.9% | inhibition at 1 µM [2]: 99%
Structure (SMILES): O=S(=O)(c1cnc2ccc(O)cn12)n1ncc2ncc(-c3ccccc3)cc21 [Example 127, 1-[(6-hydroxy-imidazo[1,2-a]pyridine)-3-sulfonyl]-6-phenyl-1H-pyrazolo[4,3-b]pyridine]

— US9988381B2, “Five-member-heterocycle fused pyridine compounds, method of producing the same, and use thereof” (SHANGHAI INSTITUTE OF MATERIA MEDICA, CHINESE ACADEMY OF …, priority 2013, dated 2018)
